Test results as given in US9732094B2, “Arylquinazolines” (Merck Patent GmbH, priority 2013, dated 2017).
Like-named read-outs stand apart in the source and are kept apart here.

Tests used:
Kv11.1 (hERG) = Kv11.1 (hERG) (Homo sapiens (Human), UniProt Q12809); experiment: Kv11.1 (hERG) ion channel activity (patch clamp assay), HEK293 cells transfected with hERG gene
Method: C) Kv11.1 (hERG) Ion Channel Activity (Patch Clamp Assay)
The patch-clamp measurement was carried out at room temperature in whole-cell configuration on human embryonic kidney cells (HEK293) which have been transfected in a stable manner with the hERG gene.
The whole-cell configurations were carried out using an automated patch clamp device (Patchliner™, Nanion Technologies, Munich). […] The glass chip has a hole of defined size to which the cell is transferred into the Gigaseal by application of a reduced pressure and brought into the whole-cell configuration. Buffer, cell suspension and test substances were added to microchannels of the chip using a Teflon-coated pipette. The cells were clamped to a holding potential of −80 mV. For measurement of substance-promoted inhibition of the Kv11.1 channel, the following voltage protocol was applied at 10-second intervals: 51 ms/−80 mV, 500 ms/+40 mV, 500 ms/−40 mV, 200 ms/−80 mV. The leakage current is subtracted by means of the P4 method. The cells were resuspended in extracellular buffer (EC) and applied to the chip. After the cell had been collected, the seal was improved by addition of a seal enhancer buffer. As soon as the whole-cell configuration had been reached, the seal enhancer buffer was washed out and replaced by extracellular buffer. The measurement started in EC for 1.5 min. DMSO (vehicle control, 0.1% of DMSO) was then applied, and the control current was recorded for 3 min. The test substance was subsequently added twice in the same concentration, and the potassium current was measured for 3.5 min in each case.
The reference substance used was the Kv11.1 (hERG) ion channel blocker quinidine. The effects of test substances and quinidine were standardised to the associated vehicle control. The effect on the Kv11.1 (hERG) channel activity was assessed from the potassium current at −40 mV. For the calculation, the current was evaluated for the respective final trace.
During the measurement, an aliquot of the test substance was taken for concentration determination. The sample was measured immediately by HPLC, and the final concentration was determined from a calibration curve.

[1] = molecular target: DNA-PK phosphorylation at serine 2056 (Homo sapiens (Human), UniProt P78527); experiment: DNA-PK phosphorylation at serine 2056 (cellular), bleomycin-treated HCT116 cells, ELISA; assay type: cell-based; conditions: read-out: IC50 pDNA-PK
How it was run: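 Test compounds and bleomycin (10 μM) are added to adherent HCT116 cells for 6 h. Detection uses an HRP-based chemiluminescent ELISA, with phospho-DNA-PK signals standardised to total protein.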

DNA-PK = DNA-PK (Homo sapiens (Human), UniProt P78527); experiment: DNA-PK assay (biochemical), flashplate 33P-ATP kinase assay
How it was run: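 Reactions ran in streptavidin-coated flashplates and were halted by 200 mM EDTA, with a further 30 min at room temperature before saline washing.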

[2] = Ki [Kv1.11 hERG], patch clamp, HEK293 transfected with hERG gene
[3] = cellular, HCT116 cells, 10 μM bleomycin, six hours
[4] = Ki [Kv1.11 hERG], hERG patch clamp assay (cells without asterisk)
[5] = cellular DNA-PK phosphorylation at serine 2056, HCT116
[6] = read-out: Ki [Kv1.11 hERG], patch clamp, HEK293 transfected with hERG gene
[7] = read-out: Ki [Kv1.11 hERG], hERG patch clamp assay (cells without asterisk)
[8] = read-out: Ki [Kv1.11 hERG], Table 5

Chain of Kv11.1 (hERG) (Q12809 whole entry): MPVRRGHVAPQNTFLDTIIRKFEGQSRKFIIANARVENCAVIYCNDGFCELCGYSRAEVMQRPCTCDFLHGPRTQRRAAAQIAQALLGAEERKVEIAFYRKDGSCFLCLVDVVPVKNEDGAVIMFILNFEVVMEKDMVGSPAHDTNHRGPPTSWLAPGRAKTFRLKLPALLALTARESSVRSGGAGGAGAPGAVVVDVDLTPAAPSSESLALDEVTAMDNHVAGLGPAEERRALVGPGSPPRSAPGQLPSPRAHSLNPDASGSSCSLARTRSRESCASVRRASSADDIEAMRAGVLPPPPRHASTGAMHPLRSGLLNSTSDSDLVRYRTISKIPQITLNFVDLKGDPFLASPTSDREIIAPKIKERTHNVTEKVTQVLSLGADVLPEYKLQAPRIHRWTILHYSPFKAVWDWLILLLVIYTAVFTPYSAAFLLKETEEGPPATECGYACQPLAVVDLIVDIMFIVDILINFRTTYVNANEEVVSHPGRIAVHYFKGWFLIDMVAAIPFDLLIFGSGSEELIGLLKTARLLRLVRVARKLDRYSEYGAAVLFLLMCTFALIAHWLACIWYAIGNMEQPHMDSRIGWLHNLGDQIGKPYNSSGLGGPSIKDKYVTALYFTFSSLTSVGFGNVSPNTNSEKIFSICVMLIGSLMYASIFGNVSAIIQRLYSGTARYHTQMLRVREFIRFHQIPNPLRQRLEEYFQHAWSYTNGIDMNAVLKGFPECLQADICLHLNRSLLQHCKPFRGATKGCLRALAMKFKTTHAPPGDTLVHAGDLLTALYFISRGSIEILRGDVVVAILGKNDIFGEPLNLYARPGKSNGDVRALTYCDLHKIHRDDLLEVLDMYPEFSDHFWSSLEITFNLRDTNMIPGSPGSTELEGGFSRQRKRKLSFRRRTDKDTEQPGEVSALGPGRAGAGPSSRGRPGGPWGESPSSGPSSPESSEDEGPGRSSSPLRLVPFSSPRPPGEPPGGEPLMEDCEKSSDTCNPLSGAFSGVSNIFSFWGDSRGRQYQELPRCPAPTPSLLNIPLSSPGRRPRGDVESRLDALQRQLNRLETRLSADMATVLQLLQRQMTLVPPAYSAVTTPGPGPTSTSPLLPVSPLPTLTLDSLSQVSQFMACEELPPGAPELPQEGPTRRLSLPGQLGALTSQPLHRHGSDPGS

IC50 [1, 3] [µM] | IC50 (DNA-PK; enzymatic, 5 μM ATP) [µM] | IC50 [1, 5] [µM] | IC50 (DNA-PK; biochemical DNA-PK assay) [µM] | SMILES | Ki (Kv11.1 (hERG); [4]) [µM] | also measured
 |  | < 0.5 | < 0.003 | Cn1c(C(O)c2cc(-c3ncnc4cc(N5CCOCC5)ccc34)ccc2Cl)cccc1=O (stereo not drawn) [Example 400, 6-{[2-Chloro-5-(7-morpholin-4-yl-quinazolin-4-yl)-phenyl]hydroxy-methyl}-1-methyl-1H-pyridin-2-one] | 15 to 25 | 
 |  | < 0.5 | < 0.003 | OC(c1cc(-c2ncnc3cc(N4CCOCC4)ccc23)c(F)cc1F)c1nccn2cccc12 (stereo not drawn) [Example 358, [2,4-Difluoro-5-(7-morpholin-4-yl-quinazolin-4-yl)-phenyl]pyrrolo[1,2-a]-pyrazin-1-ylmethanol] | 10 to 15 | 
 |  | < 0.5 | < 0.003 | OC(c1ccc(F)c(-c2ncnc3cc(N4CCOCC4)ccc23)c1)c1ncnc2sccc12 (stereo not drawn) [Example 437, [4-Fluoro-3-(7-morpholin-4-yl-quinazolin-4-yl)-phenyl]thieno[2,3-d}-pyrimidin-4-yl-methanol] | 10 to 15 | 
 |  | < 0.5 | < 0.003 | OC(c1ccc(F)c(-c2ncnc3cc(N4CCOCC4)ccc23)c1)c1ncnc2occc12 (stereo not drawn) [Example 434, [4-Fluoro-3-(7-morpholin-4-yl-quinazolin-4-yl)-phenyl]furo[2,3-d}-pyrimidin-4-yl-methanol] |  | Ki (Kv11.1 (hERG); [7]): > 25 µM
 |  | 10 to 30 | 0.007 to 0.03 | Cn1cnc2c(C(O)c3cc(-c4ncnc5cc(N6CCOCC6)ccc45)c(F)cc3F)ncnc21 (stereo not drawn) [Example 346, [2,4-Difluoro-5-(7-morpholin-4-yl-quinazolin-4-yl)-phenyl]-(9-methyl-9H-purin-6-yl)-methanol] | 15 to 25 | 
 |  | 0.5 to 5 | 0.003 to 0.007 | Cc1cncnc1C(C(N)=O)c1cc(-c2ncnc3cc(N4CCOCC4)ccc23)ccc1Cl (stereo not drawn) [Example 377, 2-[2-Chloro-5-(7-morpholin-4-yl-quinazolin-4-yl)-phenyl]-2-(5-methyl-pyrimidin-4-yl)-acetamide] | 15 to 25 | 
 |  | 5 to 10 | 0.007 to 0.03 | Cc1nccnc1/C(C(=O)O)=C1/C=CC(=O)C(c2ncnc3cc(N4CCOCC4)ccc23)=C1 [Example 331, (3-methyl-pyrazin-2-yl)-[3-(7-morpholin-4-ylquinazolin-4-yl)-4-oxocyclohexa-2,5-dien-(E)-ylidene]-acetic acid] |  | Ki (Kv11.1 (hERG); [7]): > 25 µM
 |  | 0.5 to 5 | 0.003 to 0.007 | Cn1c(C(O)c2cc(-c3ncnc4cc(N5CCOCC5)ccc34)ccc2F)cccc1=O (stereo not drawn) [Example 401, 6-{[2-Fluoro-5-(7-morpholin-4-yl-quinazolin-4-yl)-phenyl]hydroxy-methyl}-1-methyl-1H-pyridin-2-one] | 10 to 15 | 

The next lines start with the molecule.

SMILES | IC50 [1, 3] [µM] | IC50 (DNA-PK; enzymatic, 5 μM ATP) [µM] | IC50 [1, 5] [µM] | IC50 (DNA-PK; biochemical DNA-PK assay) [µM] | Ki (Kv11.1 (hERG); [4]) [µM] | also measured
O[C@@H](c1ccc(F)c(-c2ncnc3cc(N4CCOCC4)ccc23)c1)c1nccnc1Cl [Example 28, (S)-(3-Chloro-pyrazin-2-yl)-[4-fluoro-3-(7-morpholin-4-yl-quinazolin-4-yl)phenyl]-methanol] | 5 to 10 | 0.007 to 0.03 |  |  |  | Ki (Kv11.1 (hERG); [2]): 15 to 25 µM
Cc1nccnc1C(O)c1cc(-c2ncnc3cc(N4CCOCC4)ccc23)c(F)cc1F (stereo not drawn) [Example 86] | < 0.5 | < 0.003 |  |  |  | Ki (Kv11.1 (hERG); [6]): > 25 µM
COc1nccnc1C(O)c1cc(-c2ncnc3cc(N4CCOCC4)cnc23)c(F)cc1Cl (stereo not drawn) [Example 247, [2-Chloro-4-fluoro-5-(7-morpholin-4-yl-pyrido[3,2-d}-pyrimidin-4-yl)-phenyl]-(3-methoxy-pyrazin-2-yl)-methanol] |  |  | 5 to 10 | 0.007 to 0.03 | 15 to 25 | 
COc1cnc(C(O)c2ccc(F)c(-c3ncnc4cc(N5CCOCC5)ccc34)c2)nc1 (stereo not drawn) [Example 66, [4-Fluoro-3-(7-morpholin-4-yl-quinazolin-4-yl)phenyl]-(5-methoxypyrimidin-2-yl)methanol] | 10 to 30 | 0.007 to 0.03 |  |  |  | Ki (Kv11.1 (hERG); [6]): > 25 µM
COc1cc(Cl)nnc1C(O)c1cc(-c2ncnc3cc(N4CCOCC4)ccc23)c(F)cc1Cl (stereo not drawn) [Example 8, [2-Chloro-4-fluoro-5-(7-morpholin-4-yl-quinazolin-4-yl)phenyl]-(6-chloro-4-methoxy-pyridazin-3-yl)methanol] | 0.5 to 5 | 0.007 to 0.03 |  |  |  | Ki (Kv11.1 (hERG); [2]): 10 to 15 µM
COc1nccnc1[C@H](O)c1cc(-c2ncnc3cc(N4CCOCC4)ccc23)c(F)cc1Cl [Example 455, (R)-[2-Chloro-4-fluoro-5-(7-morpholin-4-yl-quinazolin-4-yl)-phenyl]-(3-methoxy-pyrazin-2-yl)-methanol] |  |  | < 0.5 | < 0.003 | 15 to 25 | 
COc1cc(Cl)nnc1C(O)c1ccc(F)c(-c2ncnc3cc(N4CCOCC4)ccc23)c1 (stereo not drawn) [Example 10, (6-Chloro-4-methoxy-pyridazin-3-yl)-[4-fluoro-3-(7-morpholin-4-yl-quinazolin-4-yl)phenyl]-methanol] | < 0.5 | 0.003 to 0.007 |  |  |  | Ki (Kv11.1 (hERG); [6]): > 25 µM
Fc1ccc(C(OC(F)F)c2nccs2)cc1-c1ncnc2cc(N3CCOCC3)ccc12 (stereo not drawn) [Example 199, 4-[5-(Difluoro-methoxy-thiazol-2-ylmethyl)-2-fluoro-phenyl]-7-morpholin-4-yl-quinazoline] |  |  |  |  |  | Ki (Kv11.1 (hERG); [8]): < 10 µM; IC50 ([1]; Table 5, HCT116 cells): 10 to 30 µM; IC50 (DNA-PK; Table 5): 0.003 to 0.007 µM
OC(c1cccc(-c2ncnc3cc(N4CCOCC4)ccc23)c1)c1nccs1 (stereo not drawn) [Example 148, [3-(7-Morpholin-4-ylquinazolin-4-yl)-phenyl]thiazol-2-yl-methanol] |  |  |  |  |  | Ki (Kv11.1 (hERG); Ki [Kv1.11 hERG], Table 5): 10 to 15 µM; IC50 ([1]; Table 5, HCT116 cells): 10 to 30 µM; IC50 (DNA-PK; Table 5): 0.007 to 0.03 µM
OC(c1cc(-c2ncnc3cc(N4CCOCC4)ccc23)c(F)cc1F)c1nccnc1OC(F)F (stereo not drawn) [Example 451, (3-Difluoromethoxy-pyrazin-2-yl)-[2,4-difluoro-5-(7-morpholin-4-yl-quinazolin-4-yl)-phenyl]methanol] |  |  | 0.5 to 5 | 0.003 to 0.007 |  | Ki (Kv11.1 (hERG); [7]): 15 to 25 µM
CNC(=O)C(c1cc(-c2ncnc3cc(N4CCOCC4)ccc23)c(F)cc1Cl)c1nccnc1OC (stereo not drawn) [Example 229, 2-[2-Chloro-4-fluoro-5-(7-morpholin-4-yl-quinazolin-4-yl)-phenyl]-2-(3-methoxypyrazin-2-yl)-N-methyl-acetamide] |  |  | 0.5 to 5 | 0.007 to 0.03 |  | Ki (Kv11.1 (hERG); [7]): > 25 µM
OC(c1ccnnc1)c1cc(-c2ncnc3cc(N4CCOCC4)ccc23)c(F)cc1Cl (stereo not drawn) [Example 36, [2-Chloro-4-fluoro-5-(7-morpholin-4-yl-quinazolin-4-yl)phenyl]-pyridazin-4-ylmethanol] | < 0.5 | < 0.003 |  |  |  | Ki (Kv11.1 (hERG); [6]): > 25 µM
C#CC(O)(c1ccc(OC)nn1)c1cc(-c2ncnc3cc(N4CCOCC4)ccc23)c(F)cc1Cl (stereo not drawn) [Example 122, 1-[2-Chloro-4-fluoro-5-(7-morpholin-4-yl-quinazolin-4-yl)-phenyl]-1-(6-methoxy-pyridazin-3-yl)-prop-2-yn-1-ol] | 0.5 to 5 | 0.007 to 0.03 |  |  |  | Ki (Kv11.1 (hERG); [2]): 10 to 15 µM
CC(O)(c1cncc(-c2ncnc3cc(N4CCOCC4)ccc23)c1)c1nccs1 (stereo not drawn) [Example 152, 1-[5-(7-Morpholin-4-ylquinazolin-4-yl)-pyridin-3-yl]-1-thiazol-2-ylethanol] |  |  |  |  |  | Ki (Kv11.1 (hERG); [8]): > 25 µM; IC50 ([1]; Table 5, HCT116 cells): 10 to 30 µM; IC50 (DNA-PK; Table 5): 0.007 to 0.03 µM
CN(C)CCOc1ccc(C(O)c2ccc(F)c(-c3ncnc4cc(N5CCOCC5)ccc34)c2)nn1 (stereo not drawn) [Example 133, [6-(2-Dimethyl-amino-ethoxy)-pyridazin-3-yl]-[4-fluoro-3-(7-morpholin-4-yl-quinazolin-4-yl)-phenyl]methanol] | 5 to 10 | 0.007 to 0.03 |  |  |  | Ki (Kv11.1 (hERG); [6]): > 25 µM
